Source: patent US20200077648A1, “PHENOXYPHENYLAMIDINES AND THE USE THEREOF AS FUNGICIDES” (priority 2016, published 2020)

What was measured:
[1] = tested on: soy bean plants; experiment: Plant compatibility test using soy bean plants; assay type: in vivo; conditions: soy bean young plants sprayed, rate of application of active compound 500 ppm, evaluated 6 days after application; 0% = no damages, 100% = plants totally damaged
Procedure: Plant Compatibility Test Using Soy Bean Plants
Solvent: 24.5 parts by weight of acetone • 24.5 parts by weight of dimethylacetamide Emulsifier: 1 part by weight of alkylaryl polyglycol ether
To produce a suitable preparation of active compound, 1 part by weight of active compound is mixed with the stated amounts of solvent and emulsifier, and the concentrate is diluted with water to the desired concentration. Young plants are sprayed with the preparation of active compound at the stated application rate. The plants are then placed in a greenhouse at approximately 21° C. and a relative atmospheric humidity of approximately 80%. The test is evaluated 6 days after application and comprises plant damages like leaf deformation, chlorosis, necrosis, shoot damage or stunting. 0% means no damages are observed, while 100% means that the plants are totally damaged.

[2] = Log P measurement by HPLC on reversed phase columns (EEC directive 79/831 Annex V.A8; methods [a], [b], [c]); assay type: physicochemical
Procedure: If more than one Log P value is available within the same method, all the values are given and separated by “+”. […] Lambda-max-values were determined using UV-spectra from 200 nm to 400 nm and the peak values of the chromatographic signals.

[3] = method [a]: LC-UV, acidic range, 0.1% formic acid in water and acetonitrile as eluent (linear gradient 10% to 95% acetonitrile)
[4] = method [a]: LC-UV, acidic range, 0.1% formic acid in water and acetonitrile as eluent
[5] = method [b]: LC-UV, neutral range, 0.001 molar ammonium acetate solution in water and acetonitrile as eluent

Structure (SMILES) | LogP [2, 3] | LogP [2, 5] | chromatographic logP ([2]; reversed phase HPLC column, method [a]: LC-UV, acidic range, 0.1% formic acid in water and acetonitrile as eluent) | Necrosis in % [1] | LogP [2, 4]
Cc1cc(Oc2ccccc2C#N)c(C)cc1N=CN(C)C(C)C [Example 71] | 1.48^[a] | – | – | 5% | –
CCN(C)C=Nc1cc(Cl)c(Oc2cccc(F)c2)cc1C [Example 12] | – | – | – | 5% | 1.75^[a]
CCN(C)C=Nc1cc(Br)c(Oc2ccccc2)cc1C [Example 36] | – | 4.79^[b] | – | 40% | 1.58^[a];
CCN(C)C=Nc1cc(C)c(Oc2ccccc2C(F)(F)F)cc1C [Example 114] | 1.69^[a] | – | – | 5% | –
CCN(C)C=Nc1cc(I)c(Oc2ccccc2C#N)cc1C [Example 56] | – | – | – | 10% | 1.37^[a]
CCN(C)C=Nc1cc(C)c(Oc2ccc(F)cc2)cc1Cl [Example 9] | – | – | – | 5% | 1.47^[a]
Cc1cc(Oc2ccccc2F)c(C)cc1N=CN(C)C(C)C [Example 67] | – | – | – | 40% | 1.68^[a]
CCN(C)C=Nc1cc(C)c(Oc2cccc(F)c2)cc1Cl [Example 5] | – | – | – | 10% | 1.58^[a]
CCN(C)C=Nc1cc(C)c(Oc2ccccc2Cl)cc1C [Example 16] | – | – | – | 30% | 1.86^[a]
CCN(C)C=Nc1cc(Cl)c(Oc2cccc(Cl)c2)cc1C [Example 48] | – | – | – | 30% | 1.83^[a]
CCN(C)C=Nc1cc(C2CC2)c(Oc2ccccc2F)cc1C [Example 120] | 1.60^[a] | – | – | 0% | –
CCN(C)C=Nc1cc(I)c(Oc2ccccc2F)cc1C [Example 55] | – | – | – | 10% | 1.58^[a]
Cc1cc(N=CN(C)C(C)C)c(Cl)cc1Oc1ccccc1F [Example 7] | – | – | – | 10% | 1.80^[a]
CCN(C)C=Nc1cc(C)c(Oc2cccc(C)c2F)cc1C [Example 20] | – | – | – | 80% | 1.69^[a]
CCN(C)C=Nc1cc(C)c(Oc2cccc(F)c2F)cc1C [Example 19] | – | – | – | 60% | 1.49^[a]
CCN(C)C=Nc1cc(I)c(Oc2ccccc2)cc1C [Example 30] | – | 5.01^[b] | – | 50% | 1.69^[a];
CCN(C)C=Nc1cc(OC)c(Oc2ccccc2)cc1C [Example 31] | – | 3.93^[b] | – | 30% | 1.42^[a];
CCN(C)C=Nc1cc(Br)c(Oc2ccccc2F)cc1C [Example 42] | – | – | – | 20% | 1.55^[a]
CCN(C)C=Nc1cc(C(C)C)c(Oc2ccccc2C#N)cc1C [Example 107] | 1.75^[a] | – | – | 0% | –
CCN(C)C=Nc1cc(F)c(Oc2ccccc2F)cc1C [Example 65] | – | – | – | 20% | 1.34^[a]
CCN(C)C=Nc1cc(Cl)c(Oc2ccc(F)cc2)cc1C [Example 8] | – | – | – | 0% | 1.55^[a]
CCN(C)C=Nc1cc(C(F)(F)F)c(Oc2ccccc2C#N)cc1C [Example 21] | – | – | – | 20% | 1.46^[a]
CCN(C)C=Nc1cc(C)c(Oc2cccc(F)c2)cc1C [Example 2] | – | – | – | 80% | 1.50^[a]
CCN(C)C=Nc1cc(C(F)F)c(Oc2ccccc2C#N)cc1C [Example 102] | 1.18^[a] | – | – | 0% | –
CCN(C)C=Nc1cc(C)c(Oc2cccc(Cl)c2F)cc1C [Example 53] | – | – | – | – | 1.89^[a]

More lines, main results first:

LogP [2, 3] | LogP [2, 5] | chromatographic logP ([2]; reversed phase HPLC column, method [a]: LC-UV, acidic range, 0.1% formic acid in water and acetonitrile as eluent) | Structure (SMILES) | Necrosis in % [1] | LogP [2, 4]
1.35^[a] | – | – | CCN(C)C=Nc1cc(C)c(Oc2cccc(F)c2C#N)cc1Cl [Example 88] | 20% | –
1.60^[a] | – | – | C=C(C)c1cc(N=CN(C)CC)c(C)cc1Oc1ccccc1F [Example 118] | 5% | –
1.27^[a] | – | – | CCN(C)C=Nc1cc(C)c(Oc2cc(F)ccc2C#N)cc1Cl [Example 93] | 10% | –
1.69^[a] | – | – | CCc1cc(N=CN(C)CC)c(C)cc1Oc1ccccc1F [Example 106] | 30% | –
1.46^[a] | – | – | CCN(C)C=Nc1cc(C(F)F)c(Oc2ccccc2F)cc1C [Example 105] | 0% | –
– | – | 1.69 | CCN(C)C=Nc1cc(C)c(Oc2ccccc2F)cc1C1CC1 [Example 34, N′-[2-cyclopropyl-4-(2-fluorophenoxy)-5-methyl-phenyl]-N-ethyl-N-methyl-formamidine] | – | –
